This is an account of results in publication PMC2862727 (Molecular immunology, 2010).

Entries after “also recorded” stand apart in the source; their conditions may differ.

For series [1], the target named is β-AR mediating cAMP production in THP-1 cells (Homo sapiens, UniProt P08588). The series is described as follows: Iso-induced cAMP production in THP-1 cells, Schild regression analysis. The series is classed as cell-based. Particulars: inhibition of Iso mediated cAMP production in THP-1 cells, n = 4.
Series [2] concerns specific ^125I-CYP binding sites on THP-1 membranes. Particulars: one-site binding model, ref Talmadge, et al., 1993; cited from earlier work.
Series [3] relates to IL-1β production in THP-1 cells. The series is described as follows: IL-1β immunoblot of THP-1 cell lysates. The settings on record: for effect of inhibitor or antagonist alone on IL-1β generation: absence of receptor agonist, data not shown. (A western blot detects proteins with antibodies after separation by electrophoresis.)
For series [4], the system named is β-AR binding sites on THP-1 cell membranes. The series is described as follows: Saturation radioligand binding of 125I-CYP on crude THP-1 cell membranes. More on the design: species or system human. The settings on record: THP-1 membranes, n = 6.
Series [5] has as its system secreted IL-1β from THP-1 cells. The series is described as follows: ELISA of IL-1β secreted into media of THP-1 cells. It counts as cell-based, human. The settings on record: for secreted IL-1β in media: 2 h.
The subject of series [6] is inflammatory mediators secreted by THP-1 cells. The series is described as follows: Cytokine antibody array of conditioned media from THP-1 cells. It counts as cell-based, human. The settings on record: 2 h, n = 3.
Series [7] concerns IL-1β production in primary human monocytes. The series is described as follows: IL-1β immunoblot of primary human monocyte lysates. The series is classed as cell-based. The settings on record: individual treatment (30 ng/mL LPS or 0.1 μM Iso alone), n = 3.
The mark [8] stands for this setting: individual treatment (30 ng/mL LPS or 0.1 μM Iso alone), n = 6, control 1.6 ± 0.5 pg/mL.
[9] abbreviates: 30 ng/mL LPS and 0.1 μM Iso simultaneously.

β-AR mediating cAMP production in THP-1 cells, sequence (P08588 whole entry): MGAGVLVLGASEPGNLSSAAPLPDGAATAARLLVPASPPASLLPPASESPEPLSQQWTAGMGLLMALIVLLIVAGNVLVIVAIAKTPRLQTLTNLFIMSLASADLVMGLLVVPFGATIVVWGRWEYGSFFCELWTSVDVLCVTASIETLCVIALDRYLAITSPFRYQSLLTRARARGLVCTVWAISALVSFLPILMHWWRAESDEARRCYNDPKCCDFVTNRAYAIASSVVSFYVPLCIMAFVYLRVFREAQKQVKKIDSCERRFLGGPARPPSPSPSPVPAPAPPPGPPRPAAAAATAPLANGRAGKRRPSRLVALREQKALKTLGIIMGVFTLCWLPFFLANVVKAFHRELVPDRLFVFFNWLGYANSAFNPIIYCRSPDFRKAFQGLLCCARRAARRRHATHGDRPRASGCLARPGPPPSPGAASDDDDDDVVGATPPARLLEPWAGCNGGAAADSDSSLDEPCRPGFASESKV

On to `Cc1ccc(OCC(O)C(C)NC(C)C)c2c1CCC2` (racemic) [ICI 118,551, erythro-dl-1-(7-methylindan-4-yloxy)-3-isopropylaminobutan-2-ol], for which, in series [1], the Schild regression slope worked out at 1.0 ± 0.1. Moreover, the Ki in series [2] was 46 nM. For the same compound, the “effect of inhibitor or antagonist alone on IL-1β generation” value (“effect of inhibitor or antagonist alone” for short) in series [3] (THP-1 cells) is “no qualitative changes”.
On to `CC(C)(C)NCC(O)COc1cccc2[nH]c(C#N)c(I)c12` (single isomer, unassigned; (-)) [^125I-CYP, (–)3-[^125I]iodocyanopindolol], for which, in series [4] (read-out: equilibrium dissociation constant (Kd) of 125I-CYP, saturation binding), the Kd turned out to be 0.0301 ± 0.0051 nM.
Take `CC(C)(C)NCC(O)COc1cccc2[nH]c(C#N)c([125I])c12` (single isomer, unassigned; (-)) [^125I-CYP, (–)3-[^125I]iodocyanopindolol]: the “number of binding sites (Bmax)” value in series [4] (labeled by 125I-CYP) turned out to be 341 ± 77 fmol/mg protein.
With `Cn1cc(C(F)(F)F)nc1-c1ccc(OCC(O)CNCCOc2ccc(O)c(C(N)=O)c2)cc1` (stereo not shown) [CGP 20712A, 1-(2-((3-carbamoyl-4-hydroxy)phenoxy)ethylamino)-3-(4-(1-methyl-4-trifluoromethyl-2-imidazoylyl)phenoxy)-2-propanol methanesulfonate], the “effect of inhibitor or antagonist alone” value in series [3] (THP-1 cells) was “no qualitative changes”.
For `Cl.Cl.O=S(=O)(NCCNCC=Cc1ccc(Br)cc1)c1cccc2cnccc12` [H-89, N-[2-(p-bromocinnamylamino)ethyl]-5-isoquinolinesulfonamide dihydrochloride], the “effect of inhibitor or antagonist alone” value in series [3] (THP-1 cells) is on record as “did not alter responses”. Further, in series [3] (THP-1 lysates, 100 nM H-89 pre-incubation then 30 ng/mL LPS plus 0.1 μM Iso (Fig 7), n = 6), the “IL-1β produced, fold over LPS” value was found to be 1.4±0.1 fold over LPS.
For `CC(C)NCC(O)c1ccc(O)c(O)c1` (stereo not shown) [Iso, isoproterenol], the “difference in IL-1β released into media between LPS alone and LPS plus Iso” value in series [5] is recorded as greater than 4 fold. Further, the “secreted IL-1β in media” value in series [5] (0.1 μM Iso plus 30 ng/mL LPS, n = 6) was 76.3 ± 24.7 pg/mL; in series [5] (setting [8]), 4.8 ± 1.4 pg/mL. Further, in series [3] (THP-1 cells, LPS plus Iso versus LPS alone), the “synergistic modulation of LPS mediated production of IL-1β” value is greater than 4 fold. Also, in series [6] (setting [9]), the “LPS mediated TNF-α expression versus LPS alone” value is on record as “qualitative loss; also recorded: decreases”. The “soluble IL-1β versus LPS stimulation alone” value in series [6] (setting [9]) is reported as “qualitative increase”. In addition, in series [6] (0.1 μM Iso only), the “expression pattern of inflammatory mediators versus basal” value was “no differences in the expression pattern”.
lipopolysaccharide [LPS]: the “secreted IL-1β in media” value in series [5] (setting [8]) is recorded as 16.9 ± 2.6 pg/mL. Also, the “IL-1β produced, fold over basal” value in series [3] (THP-1 lysates, individual treatment (30 ng/mL LPS or 0.1 μM Iso alone), 2 hr, n = 5) is reported as 12.1 ± 3.9 fold; in series [7], 3.4 ± 1.8 fold. Besides, in series [6] (30 ng/mL LPS only), the “expression of secreted IL-1β and TNF-α versus control” value is recorded as “qualitative increase”.

One may read the Ki as a dissociation constant, usually derived from enzyme kinetics or from competition with a known ligand. Broadly, the Kd is the concentration at which binding is half-saturated.
